Assay results from the supplement of paper PMC12532568.
Structures can show the parent of a compound that is named as a salt.

Tested on: Danio rerio larvae Tg(actc1b:ZsGreen-LC3), 3 dpf
Experiment: LC3 puncta relative area vs vehicle (mean) (log2 fold change); higher = more autophagy
Conditions: treatment time 16 h
Method: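 Transgenic ZsGreen-LC3 zebrafish larvae (2 dpf) were treated for 16 h with natural bioactives at 10, 50, 100 or 250 µM. Skeletal-muscle LC3 puncta area was measured by high-content imaging with or without 4 h of 100 mM NH4Cl, normalised to vehicle, and reported as the mean log2 fold change over 4–21 larvae.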

SMILES | LC3 puncta (log2) (NH4Cl: + NH4Cl, 10 µM) | LC3 puncta (log2) (NH4Cl: + NH4Cl, 50 µM) | LC3 puncta (log2) (NH4Cl: + NH4Cl, 100 µM) | LC3 puncta (log2) (NH4Cl: + NH4Cl, 250 µM) | LC3 puncta (log2) (NH4Cl: - NH4Cl, 10 µM) | LC3 puncta (log2) (NH4Cl: - NH4Cl, 50 µM) | LC3 puncta (log2) (NH4Cl: - NH4Cl, 100 µM) | LC3 puncta (log2) (NH4Cl: - NH4Cl, 250 µM)
CC(=O)C(C)=O [Biacetyl] | 0.347 | 0.581 | 0.946 | 0.981 | 0.0128 | 0.343 | 0.699 | 0.218
O=c1c(O)c(-c2ccc(O)c(O)c2)oc2cc(O)cc(O)c12 [Quercetin] | 0.773 | 0.126 | 0.298 | 0.298 | -0.173 | -0.502 | -1.19 | -0.815
Oc1cc(O)c2c(c1)O[C@H](c1ccc(O)c(O)c1)[C@H](O)C2 [(-)-Epicatechin] | 0.954 | 0.317 | 0.232 | 0.0319 | -0.000662 | -0.156 | -0.539 | -0.492
C/C1=C2/[N-]C([C@H](CC(N)=O)[C@@]2(C)CCC(=O)NCC(C)OP(=O)([O-])OC2C(O)[C@@H](n3cnc4cc(C)c(C)cc43)O[C@@H]2CO)[C@]2(C)N=C(/C(C)=C3N=C(/C=C4N=C1[C@@H](CCC(N)=O)C\4(C)C)[C@@H](CCC(N)=O)[C@]\3(C)CC(N)=O)[C@@H](CCC(N)=O)[C@]2(C)CC(N)=O.[CH2-]C1O[C@H](n2cnc3c(N)ncnc32)[C@@H](O)[C@H]1O.[Co+3] (some centres undefined) [Coenzyme B12] | 0.47 | 0.446 | 0.394 | 0.833 | 0.178 | -0.299 | 0.292 | 0.281
CCOC(=O)CC(O)(CC(=O)OCC)C(=O)OCC [Triethyl citrate] | 0.559 | 0.524 | 1.06 | 1.44 | 0.227 | 0.572 | 0.551 | 0.957
C[C@@H](O)CCO [(R)-1,3-Butylene Glycol] | 0.22 | -0.0174 | 0.179 | 0.0875 | 0.0281 | -0.261 | -0.294 | -0.184
CCCCCCCCCC(=O)[O-].[Na+] [Sodium decanoate] | 0.524 | -0.00931 | -1.55 | -0.382 | 0.285 | -0.0288 | -0.846 | 0.298
O=C(O)CCSCCC(=O)O [3,3'-thiodipropionic acid] | 0.309 | 0.728 | -0.445 | 0.629 | 0.0135 | 0.045 | -0.0204 | -0.062
CCCCC(=O)[O-].[Na+] [Valeric acid sodium salt] | -0.472 | -0.35 | -0.0575 | -0.14 | -0.132 | 0.109 | -0.272 | -0.191
CC(O)C(=O)O (centres undefined) [Lactic acid] | 0.558 | 0.374 | 0.472 | 0.345 | 0.287 | -0.151 | -0.219 | 0.079
OCC(O)CO [Glycerol] | 0.468 | -0.233 | 0.425 | 0.628 | 0.0358 | -0.0173 | 0.118 | 0.027
CCCCCCCC(=O)O [Octanoic acid] | 0.0521 | 0.079 | 0.553 | – | -0.257 | 0.356 | 0.0532 | –
C[C@@H](CO)C(=O)O [Sodium β-hydroxyisobutyrate] | 0.761 | 0.505 | 0.553 | 0.277 | 0.14 | -0.573 | -0.233 | -0.327
C[C@H](O)CCO [(S)-1,3-Butylene Glycol] | 0.505 | -0.0626 | 0.509 | – | -0.143 | -0.512 | -0.016 | 0.014
NC(=O)c1ccc[n+]([C@@H]2O[C@H](COP(=O)([O-])O)[C@@H](O)[C@H]2O)c1 [Nicotinamide mononucleotide] | 1.01 | 0.775 | 0.349 | 0.19 | -0.0834 | -0.119 | -0.518 | -0.271
CCCCCC=CCC=CCCCCCCCC(=O)O [Linoaleic acid] | 0.722 | 1.36 | 1.01 | – | 0.542 | 0.956 | 0.433 | –
C[C@@H](O)C(=O)O [(2R)-2-hydroxypropanoic acid] | 0.532 | 0.237 | 0.304 | 0.589 | 0.00532 | -0.27 | 0.144 | -0.203
N[C@H]1C(O)O[C@H](CO)[C@@H](O)[C@@H]1O (stereo partly drawn) [D-glucosamine] | 0.082 | 0.412 | 0.454 | 0.285 | 0.0603 | 0.0831 | 0.218 | 0.352
O=C(O)CC(O)(CC(=O)O)C(=O)O [Citric acid] | 0.486 | 0.837 | -0.0949 | -0.815 | -0.0291 | -0.364 | 0.353 | 0.401
CC(=O)OC/C=C(C)/C=C/C=C(C)/C=C/C1=C(C)CCCC1(C)C [Retinol acetate] | 0.716 | 0.504 | 0.948 | 1.18 | 0.543 | 0.167 | 0.303 | 1.12
CCCCCCCCCCCCCCCCCC(=O)O [stearic acid] | 0.718 | 0.677 | 0.635 | 1.13 | 0.39 | 0.392 | 0.127 | 0.245
C[C@@H]1O[C@@H](OC[C@H]2O[C@@H](Oc3c(-c4ccc(O)c(O)c4)oc4cc(O)cc(O)c4c3=O)[C@H](O)[C@@H](O)[C@@H]2O)[C@H](O)[C@H](O)[C@H]1O [Rutin hydrate] | 0.351 | 0.0277 | 0.401 | 0.491 | -0.169 | -0.116 | 0.291 | 0.18
CCCCCCCC(=O)[O-].[Na+] [Sodium octanoate] | 0.613 | 0.427 | 0.342 | 0.503 | -0.0249 | 0.344 | 0.217 | 0.272
O=C(O)C=CC(=O)O [Butenedioic acid] | 0.693 | 1.1 | 1.29 | 1.14 | 0.588 | 0.758 | 0.837 | 0.447
C[N+](C)(C)CCO.C[N+](C)(C)CCO.C[N+](C)(C)CCO.O=P([O-])([O-])[O-] [Tricholine phosphate] | 0.7 | 0.208 | -0.172 | 0.38 | 0.0959 | 0.0907 | 0.25 | -0.277
C[C@@H](O)CC(=O)O [(R)-3-Hydroxybutyric acid] | 0.877 | 0.689 | 0.929 | 1.01 | 0.111 | -0.78 | 0.265 | 0.324
CCCCCCCC/C=C\CCCCCCCCCCCCCC(=O)O [Nervonic acid] | 0.639 | 0.888 | 1.09 | 0.707 | -0.0528 | 0.0416 | 0.723 | 0.0463
CC(O)CC(=O)O (racemic) [DL-ß-Hydroxybutyric acid sodium salt] | -0.181 | 0.231 | 0.389 | 0.588 | 0.151 | -0.288 | 0.0785 | 0.0274
